The text below walks through data of publication doi:10.1101/2024.05.17.594634, “Protein Structure Inspired Drug Discovery” (bioRxiv, 2024).

The test system of assay [1] is M14 cells. In words: Cell cycle analysis by flow cytometry, M14. In kind it is cell-based, human. The settings on record: 20 nM, eight days. How it is done:
(§1) Fig 8. Dxr2-017 inhibits melanoma cell growth through induction of anoikis. (A) Inhibition of melanoma cell growth. Cells were treated with different concentrations of Dxr2-017 and formation of colonies at eight days depicted. Data are expressed as percent of untreated control and are the mean ± SEM (N=3 replicates) of a single experiment. (B) No effect on cycle progression. M14 and SK-MEL-5 cells were treated for 8 days with 20 and 50 nM Dxr2-017, respectively, and phase of cell cycle determined by flow cytometry. Data are the mean ± SEM (N=3). *denotes P-value ≤0.05. (C) Transition to floating cells. Cells were treated for three days with different Dxr2-017 concentrations. Depicted are representative light photomicrographs at 20X; scale bar is150 μm. Blue and green arrows denote adherent and floating cells, respectively. (D) Cleaved caspase 3 is induced in floating cells. Cells were treated for 3 days, cell lysate from only adherent cells, or from adherent and floating cells combined, was probed by Western blot for cleaved caspase 3. All experiments were repeated at separate times, yielding similar results.
A total of 1 × 10^4 M14 cells and 1 × 10^4 SK-MEL-5 cells were seeded into 10 cm culture dishes. […] Cells were analyzed by flow cytometry (FACSCalibur3 analyzer, BD Biosciences), and the percentage of cells within G0/G1, S, and G2/M phases were determined via analysis using Modfit LT 4.0.5.
(A flow cytometer gives signals particle by particle.)

The test system of assay [2] is human melanoma M14 cells. In words: Eight-day colony formation assay, M14. In kind it is cell-based. The settings on record: for IC50: M14, eight-day assay, mean ± SEM. The method, then:
We next evaluated the effect of Dxr2-017 on human melanoma M14 and SK-MEL-5 cell lines in eight-day assays (Fig 8A).
as §1
(§2) Eight-day colony formation assays of cancer cells were performed as described by us.[87] Briefly, 0.5–1.0 × 10^3 cells were seeded into a 12 well plate, after 24 hours compound added and eight days later colonies (of 3 or more cells) were scored after trypan blue staining. Conditions were in replicates of N = 2. All compounds were stored under desiccated conditions in a sealed container at minus 20°C upon arrival. One day prior to use, they were placed into DMSO, stored at […] as stock solutions, thawed just prior to use, and not reused.

Assay [3] has as its system H226 lung cancer cells. The experiment in a line: Eight-day colony formation assay, H226. In kind it is cell-based, human. The method, then: We sought to identify compounds that would inhibit the growth of cancer cells, but that also did so selectively. Inhibition of cancer cell growth is a highly sought after attribute of anticancer agents. This was assessed by measuring the ability of a compound to inhibit cell growth in eight-day colony formation assays, examining concentrations ranging from 0.017 to 40 μM. Breast, colon, lung and prostate cancer are four of the most common causes of cancer in the United States, are major causes of cancer cell death, and were examined.[64] Two cell lines for each cancer type were assessed: A549 (adenocarcinoma) and H226 (squamous carcinoma) for lung, MCF-7 (estrogen receptor [ER] positive) and MDA-MB-231 (ER negative) for breast, LNCaP (androgen receptor [AR] positive) and PC3-M (AR negative) for prostate, and HCT116 (wild type p53, mutated KRAS) and HT29 (p53 mutant) for colon.[65]
In considering effect on cancer cells, for each compound and each cell line tested we calculated the efficacy ratio, i.e., efficacy ratio = (percent of remaining cancer cell colonies)/(percent of remaining bone marrow colonies), at 8 days after treatment with 40 μM compound (S4 Fig). We considered those with an efficacy ratio below 0.5 as active and at least partially selective. The stringency of this is highlighted by considering the effect of 5FU on colon cancer, where it is frequently used clinically in proven curative settings, as well as proven life prolonging settings.[70, 71] […] Even at 5.7 μM, where 5FU is toxic to bone marrow, with hematopoietic colony formation at 38% of control, the efficacy ratio for HT29 cells has only dropped to 0.52. […] It can be seen that compounds segregate to protein sites. Specifically, of 10 compounds meeting this activity criteria (i.e., efficacy ratio <0.5), 3 were directed at the Dxr2 site, 3 at FolC2, 2 at FolC1, 1 at Dxr1 and 1 at TYLT.
as §2

In general, IC50 refers to the concentration at which inhibition is half-maximal. A lower IC50 goes with greater potency.

Consider `c1ccc2sc(-c3ccc(CNc4ccc5nnnn5n4)o3)nc2c1` [Dxr2-017], for which, in assay [1], the “change in cell cycle parameters” value is given as “little-to-no change in cell cycle parameters”. The IC50 came out at 19 nM in assay [2] (Homo sapiens, M14, 192 h) and 19.7 ± 7.4 nM in assay [2]. In addition, in assay [2] (M14 IC50 compared to 40 μM eight-day bone marrow treatment), the “fold efficacy versus bone marrow stem cells” value was “over 2100 fold”. For the same compound, the “efficacy ratio (cancer cell colonies to bone marrow colonies at 8 days)” value in assay [3] (5.7 μM) stood at 0.12; in assay [3] (40 μM), 0.02.
